Experimental findings from ChEMBL document CHEMBL1201862, “PubChem BioAssay data set” (2004) are described below.

Some test systems named below: SK-MEL-5; HCC 2998; OVCAR-4; LOX IMVI; CAKI-1; HCT-15; SK-OV-3; EKVX; SF-268; KM12; HT-29; UACC-62; NCI-H522; OVCAR-8; ACHN; RPMI-8226; SW-620; M14.
Holding throughout (assay): inhibition of tumour cell growth, NCI panel, 48 h

SMILES strings stand for the structures.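 The compound was tested at five concentrations on cells cultured in 96-well plates, with a 48-hour exposure period. At the GI50, growth is halved.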 The source made the active and inactive calls. Cut-off read from the data, not from the text of the source: active = GI50 up to about 1.1 µM and inactive = higher.

Turning to `NC(=O)NN=C1Cc2ccccc2C1`, the GI50 with SK-MEL-5 was > 100 µM (inactive); with HCC 2998, > 100 µM (inactive); in the assay with OVCAR-4 it was > 100 µM (inactive); in the assay with LOX IMVI, > 100 µM (inactive); in the assay with CAKI-1 it was > 100 µM (inactive); with HCT-15, more than 100 µM. The GI50 with SK-OV-3, with EKVX, with SF-268, in the assay on KM12, with HT-29 and in the assay with UACC-62 was > 100 µM (inactive) in each case. Besides, the GI50 in the assay on NCI-H522, with OVCAR-8, in the assay with ACHN, in the assay on RPMI-8226, in the assay with SW-620 and with M14 was > 100 µM (inactive) each time.
Regarding `CCCCCCc1cc2cc(-c3cn4ccccc4n3)c(=O)oc2cc1O`, the GI50 is 8.95 µM (inactive) in the assay on SK-MEL-5; 18.4 µM (inactive) in the assay on HCC 2998; 4.66 µM (inactive) in the assay with OVCAR-4; 4.72 µM (inactive) in the assay on LOX IMVI; 4.67 µM (inactive) in the assay on CAKI-1; 5.66 µM with HCT-15. In addition, the GI50 in the assay on SK-OV-3 is 13.6 µM (inactive); with EKVX, 18.4 µM (inactive); in the assay with SF-268, 2.32 µM (inactive); with KM12, 16.1 µM (inactive); in the assay with HT-29 it was > 55.8 µM (inactive); in the assay on UACC-62, 8.17 µM (inactive). In addition, the GI50 in the assay on NCI-H522 was 5.37 µM (inactive); in the assay on OVCAR-8, 6.3 µM (inactive); with ACHN, 18 µM (inactive); in the assay on RPMI-8226, 3.68 µM (inactive); with SW-620, 9.93 µM (inactive); in the assay on M14, 5.52 µM (inactive).
On to `O=C(/C=C1\C[C@H]2C=Nc3ccccc3C(=O)N2C1)NCCCCNC(=O)/C=C1\C[C@H]2C=Nc3ccccc3C(=O)N2C1`, for which the GI50 is 12.8 µM (inactive) in the assay on SK-MEL-5; 18 µM (inactive) in the assay with HCC 2998; 8.99 µM (inactive) with OVCAR-4; 1.97 µM (inactive) in the assay with LOX IMVI; 2.77 µM (inactive) in the assay with CAKI-1; 8.89 µM with HCT-15. Besides, the GI50 was 18.3 µM (inactive) with SK-OV-3; 16.7 µM (inactive) with EKVX; 9.95 µM (inactive) in the assay on SF-268; 17.5 µM (inactive) with KM12; 14.2 µM (inactive) with HT-29; 15.3 µM (inactive) in the assay on UACC-62. Moreover, the GI50 with NCI-H522 was 1.4 µM (inactive); in the assay with OVCAR-8 it was 4.93 µM (inactive); in the assay on ACHN it was 3.61 µM (inactive); in the assay with RPMI-8226 it was 4.24 µM (inactive); with SW-620 it was 2.55 µM (inactive); in the assay with M14, 6.12 µM (inactive).
Turning to `O=C(/C=C1\N=C(c2ccccc2)N(c2ccc3c(c2)Sc2cc(N4C(=O)/C(=C/C(=O)/C=C/c5ccccc5)N=C4c4ccccc4)ccc2N3)C1=O)/C=C/c1ccccc1`, the GI50 with SK-MEL-5 was 18.7 µM (inactive); in the assay on HCC 2998, > 100 µM (inactive); in the assay with OVCAR-4 it was 20.8 µM (inactive); in the assay on LOX IMVI, 30.5 µM (inactive); with CAKI-1, 42.6 µM (inactive); in the assay with HCT-15, more than 100 µM. Also, the GI50 is 18.3 µM (inactive) in the assay with SK-OV-3; 85.7 µM (inactive) in the assay on EKVX; 69.5 µM (inactive) with SF-268; > 100 µM (inactive) in the assay with KM12; > 100 µM (inactive) in the assay with HT-29; 18.2 µM (inactive) in the assay with UACC-62. The GI50 with NCI-H522 was 20.9 µM (inactive); in the assay with OVCAR-8, 42.5 µM (inactive); with ACHN, > 100 µM (inactive); in the assay with RPMI-8226 it was 31.6 µM (inactive); in the assay on SW-620 it was 67.6 µM (inactive); in the assay on M14 it was 64 µM (inactive).
Turning to `CCCCCCNC(=O)c1cc(NCc2cc(OC)ccc2OC)ccc1O`, the GI50 is 14.5 µM (inactive) in the assay with SK-MEL-5; 26.6 µM (inactive) in the assay with HCC 2998; 22.8 µM (inactive) in the assay with OVCAR-4; 16.6 µM (inactive) with LOX IMVI; 27.2 µM (inactive) in the assay on CAKI-1; 21.1 µM with HCT-15. Moreover, the GI50 was 13.1 µM (inactive) with SK-OV-3; 23.9 µM (inactive) in the assay on EKVX; 13.3 µM (inactive) with SF-268; 24.8 µM (inactive) in the assay with KM12; 31.3 µM (inactive) in the assay with HT-29; 15 µM (inactive) in the assay on UACC-62. Further, the GI50 with NCI-H522 is 14.3 µM (inactive); in the assay with OVCAR-8, 20.7 µM (inactive); in the assay with ACHN, 32.8 µM (inactive); with RPMI-8226, 12.2 µM (inactive); in the assay with SW-620, 30.7 µM (inactive); in the assay on M14, 18.7 µM (inactive).
In the case of `C=CC1(CBr)CCC(C(C)(C)Br)O1` (stereo not drawn), the GI50 with SK-MEL-5 is 9.86 µM (inactive); with HCC 2998, 16.6 µM (inactive); in the assay with OVCAR-4, 14.3 µM (inactive); in the assay on LOX IMVI, 1.74 µM (inactive); in the assay on CAKI-1, 7.23 µM (inactive); with HCT-15, 6.64 µM. The GI50 with SK-OV-3 was 14.5 µM (inactive); in the assay on EKVX, 18 µM (inactive); in the assay on SF-268 it was 15.7 µM (inactive); in the assay on KM12, 12.2 µM (inactive); in the assay on HT-29, 5.77 µM (inactive); in the assay on UACC-62, 10.3 µM (inactive). Further, the GI50 in the assay with NCI-H522 is 2.51 µM (inactive); with OVCAR-8 it was 2.9 µM (inactive); in the assay with ACHN it was 16.4 µM (inactive); in the assay on RPMI-8226 it was 1.79 µM (inactive); in the assay with SW-620 it was 3.56 µM (inactive); with M14, 13.1 µM (inactive).
`O=C(O)CNC(=O)CO/N=C1/C(=C2/C(=O)Nc3ccccc32)Nc2ccccc21`: the GI50 with SK-MEL-5 is 54.2 µM (inactive); in the assay on HCC 2998, 47 µM (inactive); in the assay with OVCAR-4, > 100 µM (inactive); with LOX IMVI, > 100 µM (inactive); with CAKI-1 it was 28.1 µM (inactive); in the assay on HCT-15 it was 51.8 µM. Also, the GI50 in the assay with SK-OV-3 was 20.9 µM (inactive); in the assay with EKVX it was 94.6 µM (inactive); in the assay with SF-268, > 100 µM (inactive); in the assay with KM12 it was 4.9 µM (inactive); in the assay with HT-29, > 100 µM (inactive); with UACC-62 it was > 100 µM (inactive). Moreover, the GI50 in the assay with NCI-H522, in the assay on OVCAR-8, in the assay on ACHN, with RPMI-8226, in the assay with SW-620 and in the assay with M14 was > 100 µM (inactive) throughout.
In the case of `CC(=O)OCC1OC(O[C@@H]2c3c(O)c4c(c(O)c3C3=C(NN(c5ccc([N+](=O)[O-])cc5[N+](=O)[O-])[Se]3=O)[C@@]2(C)O)C(=O)c2ccccc2C4=O)C(OC(C)=O)C(OC(C)=O)C1OC(C)=O` (stereo partly drawn), the GI50 was 0.2 µM (active) in the assay with SK-MEL-5; 0.228 µM (active) with HCC 2998; 0.201 µM (active) in the assay on OVCAR-4; 0.147 µM (active) with LOX IMVI; 0.274 µM (active) in the assay on CAKI-1; 0.211 µM with HCT-15. For the same compound, the GI50 with SK-OV-3 was 0.281 µM (active); with EKVX, 0.23 µM (active); in the assay with SF-268, 0.139 µM (active); with KM12, 0.338 µM (active); in the assay on HT-29 it was 0.239 µM (active); with UACC-62, 0.27 µM (active). The GI50 is 0.124 µM (active) in the assay with NCI-H522; 0.191 µM (active) with OVCAR-8; 0.222 µM (active) in the assay on ACHN; 0.16 µM (active) in the assay with RPMI-8226; 0.101 µM (active) in the assay on SW-620; 0.254 µM (active) with M14.
Take `O=C1CCc2cc3c(cc21)C(C(=O)O)CC3` (stereo not drawn): the GI50 in the assay on SK-MEL-5 was > 100 µM (inactive); in the assay on HCC 2998 it was > 100 µM (inactive); with OVCAR-4, > 100 µM (inactive); in the assay with LOX IMVI it was > 100 µM (inactive); in the assay with CAKI-1, > 100 µM (inactive); in the assay with HCT-15, more than 100 µM. Moreover, the GI50 in the assay on SK-OV-3, in the assay with EKVX, in the assay with SF-268, with KM12, in the assay with HT-29 and in the assay with UACC-62 was > 100 µM (inactive) throughout. The GI50 in the assay with NCI-H522, in the assay on OVCAR-8, in the assay on ACHN, with RPMI-8226, in the assay with SW-620 and in the assay on M14 was > 100 µM (inactive) throughout.
`O=C1C(Cl)=C(NCCO)C(=O)c2c(O)ccc(O)c21`: the GI50 was 1.41 µM (inactive) in the assay with SK-MEL-5; 3.1 µM (inactive) with HCC 2998; 0.6 µM (active) with OVCAR-4; 1.64 µM (inactive) with LOX IMVI; > 10 µM (inactive) in the assay on CAKI-1; 2.53 µM with HCT-15. Also, the GI50 with SK-OV-3 was > 10 µM (inactive); in the assay on EKVX, 6.37 µM (inactive); in the assay with SF-268 it was 3.97 µM (inactive); with KM12, 2.05 µM (inactive); with HT-29, 2.48 µM (inactive); in the assay on UACC-62, 1.7 µM (inactive). For the same compound, the GI50 is > 10 µM (inactive) with NCI-H522; 3.84 µM (inactive) in the assay with OVCAR-8; 5.01 µM (inactive) in the assay on ACHN; 3.12 µM (inactive) in the assay on RPMI-8226; 2.37 µM (inactive) in the assay with SW-620; 2.16 µM (inactive) with M14.
Take `Cc1cnc2[nH]c(-c3cccc(Cl)c3)cc(=O)c2c1`: the GI50 with SK-MEL-5 was 0.0461 µM (active); with HCC 2998, 0.101 µM (active); in the assay on OVCAR-4 it was > 100 µM (inactive); in the assay on LOX IMVI it was 0.0438 µM (active); with CAKI-1, 0.0495 µM (active); in the assay with HCT-15, 0.117 µM. For the same compound, the GI50 in the assay with SK-OV-3 is 0.0508 µM (active); in the assay on EKVX, > 50.1 µM (inactive); in the assay on SF-268 it was 0.0796 µM (active); in the assay on KM12, 0.102 µM (active); in the assay on HT-29, 0.0392 µM (active); in the assay on UACC-62, 0.0224 µM (active). The GI50 with NCI-H522 is 0.0294 µM (active); with OVCAR-8 it was 0.159 µM (active); with ACHN, 0.507 µM (active); in the assay with RPMI-8226, < 0.0206 µM (active); in the assay with SW-620 it was 0.0119 µM (active); in the assay on M14, 0.0406 µM (active).
